Measured values reported in article PMC6112376, “Comprehensive Analyses and Prioritization of Tox21 10K Chemicals Affecting Mitochondrial Function by in-Depth Mechanistic Studies” (Environmental Health Perspectives, 2018).
Like-named read-outs stand apart in the source and are kept apart here.

Assays:
rat primary hepatocytes = test: MMP assay in rat primary hepatocytes; conditions: for IC50: read-out: MMP assays IC50 (µM) Rat Hepatocytes
HepG2 cells [1] = conditions: cited from earlier work
HepG2 cells [2] = conditions: for IC50: read-out: MMP assays IC50 (µM) HepG2
[3] = rat hepatocytes, mean ± SD of three experiments
[4] = HepG2 cells, single number from one experiment
[5] = read-out: MMP assays IC50 (µM) qHTS-HepG2
[6] = read-out: MMP assays IC50 (µM), qHTS-HepG2

| Compound | MMP assays IC50 (µM) Rat Hepatocytes (rat primary hepatocytes; [3]) | MMP assays efficacy (%) Rat Hepatocytes (rat primary hepatocytes; [3]) | MMP assays IC50 (µM) qHTS-HepG2 (HepG2 cells [1]) | MMP assays efficacy (%) qHTS-HepG2 (HepG2 cells [1]) | MMP assays IC50 (µM) HepG2 (HepG2 cells [2]; [4]) | MMP assays efficacy (%) HepG2 (HepG2 cells [2]; [4]) | IC50 (rat primary hepatocytes; [3]) | IC50 (HepG2 cells [1]; [5]) | IC50 (HepG2 cells [2]; [4]) | IC50 (HepG2 cells [1]; [6]) | IC50 (rat primary hepatocytes; Rattus norvegicus, Hepatocyte) | MMP assays IC50 (µM) HepG2 (HepG2 cells [2]) | MMP assays efficacy (%) HepG2 (HepG2 cells [2]) | MMP assays IC50 (µM) Rat Hepatocytes (rat primary hepatocytes) | IC50 (HepG2 cells [2]) |
| --- | --- | --- | --- | --- | --- | --- | --- | --- | --- | --- | --- | --- | --- | --- | --- |
| Cc1cccc(C(C)(C)C)c1O [Phenol, 2-(1,1-dimethylethyl)-6-methyl-] | inactive | inactive | inactive | inactive | inactive | inactive |  |  |  |  |  |  |  |  |  |
| Dodecylphenol |  | -59±7% |  |  |  | -100% | 41.1 ± 13.2 µM | 3.1 ± 1.22 µM | 3.16 µM |  |  |  |  |  |  |
| CC(C)(C)OC(=O)c1ccc(O)cc1 [tert-Butyl 4-hydroxybenzoate] |  | -80±10% |  | -99±24% |  | -105% | 50.8 ± 9.48 µM |  | 35.5 µM | 25.3 ± 7.32 µM |  |  |  |  |  |
| CC[C@H](NC(=O)c1cc(F)ccc1[N-]S(=O)(=O)c1cccc2cccnc12)c1ccccc1.[Na+] |  | -84±50% |  | -101±14% |  | -98% | 35.9 ± 20.2 µM |  | 11.2 µM | 4.42 ± 6.97 µM |  |  |  |  |  |
| CC(=O)O[C@@]12CO[C@@H]1C[C@H](O)[C@@]1(C)C(=O)[C@H](O)C3=C(C)[C@@H](OC(=O)[C@H](O)[C@@H](NC(=O)OC(C)(C)C)c4ccccc4)C[C@@](O)([C@@H](OC(=O)c4ccccc4)[C@H]21)C3(C)C [Docetaxel] |  |  |  | -57±17% |  |  |  | 15 ± 29.8 µM |  |  | 12.1 ± 4.78 µM | inactive | inactive |  |  |
| CN(C)C(=O)Nc1ccccc1 [Fenuron] | inactive | inactive | inactive | inactive | inactive | inactive |  |  |  |  |  |  |  |  |  |
| CCCCCCCCCCCCOC(=O)c1ccc(O)cc1 [Dodecylparaben] | inactive | inactive |  | -107±9% |  | -106% |  | 4.19 ± 1.07 µM | 7.94 µM |  |  |  |  |  |  |
| O=C(O)Cc1cc(I)c(Oc2cc(I)c(O)c(I)c2)c(I)c1 [3,3',5,5'-Tetraiodothyroacetic acid] |  | -110±24% |  | -87±2% |  | -87% | 26.1 ± 2.13 µM | 45.8 ± 2.99 µM | 39 µM |  |  |  |  |  |  |
| O=C1OC(OC(=O)c2cccnc2Nc2cccc(C(F)(F)F)c2)c2ccccc21 (stereo not drawn) [Talniflumate] |  | -85±2% |  | -105±19% | inactive | inactive |  |  |  | 27 ± 2.56 µM | 16 ± 6.68 µM |  |  |  |  |
| C[C@H]1C[C@H]2[C@@H]3CCC4=CC(=O)C=C[C@]4(C)[C@@]3(F)[C@@H](O)C[C@]2(C)[C@@]1(O)C(=O)CCl [Clobetasol] |  | -64±43% |  | -91±13% |  | -87% | 19.8 ± 15.6 µM | 14.4 ± 3.67 µM | 17.3 µM |  |  |  |  |  |  |
| CCCCCCCC/C=C\CCCCCCCC(N)=O [(9Z)-Octadec-9-enamide] | inactive | inactive |  | -67±17% | inactive | inactive |  | 41.6 ± 7.16 µM |  |  |  |  |  |  |  |
| CCCCCCCCCCCCCC[P+](CCCCCC)(CCCCCC)CCCCCC.N#C[N-]C#N |  | -81±9% |  | -103±9% |  | -94% | 31 ± 11.7 µM |  | 0.89 µM | 0.39 ± 0.19 µM |  |  |  |  |  |
| Nc1cc(Cl)c([N+](=O)[O-])cc1O [Compound 2-Amino-4-chloro-5-nitrophenol] |  | -47±13% |  | -104±19% |  | -107% | 31.3 ± 8.72 µM | 21.5 ± 2.48 µM | 25.1 µM |  |  |  |  |  |  |
| CC(=O)Nc1ccc(NC(=S)NC(=O)c2ccc(C(C)(C)C)cc2)cc1 [Tenovin-1] |  | -41±18% |  | -115±19% |  | -114% | 18.4 ± 1.5 µM |  | 3.88 µM | 3.27 ± 2.74 µM |  |  |  |  |  |
| O=C1c2ccccc2Cc2ccccc21 [Anthrone] |  | -68±22% |  | -70±4% | inactive | inactive |  | 21.8 ± 9.9 µM |  |  | 42.4 ± 12 µM |  |  |  |  |
| CCC(=O)OCC(=O)[C@@]1(OC(=O)CC)[C@@H](C)C[C@H]2[C@@H]3CCC4=CC(=O)C=C[C@]4(C)[C@@]3(Cl)[C@@H](O)C[C@@]21C [Beclazone] |  | -89±79% |  | -103±9% |  | -61% | 16.3 ± 20.6 µM | 23.7 ± 2.74 µM | 21.8 µM |  |  |  |  |  |  |
| C#C[C@]1(OC(=O)CCCCCC)CC[C@H]2[C@@H]3CCC4=CC(=O)CC[C@@H]4[C@H]3CC[C@@]21C [Noristerat] | inactive | inactive |  | -87±18% |  | -117% |  |  | 21.8 µM | 9.81 ± 1.78 µM |  |  |  |  |  |
| O=C(O)C(=O)Cc1c[nH]c2ccccc12 [Indole-3-pyruvic acid] |  | -72±42% |  | -85±21% |  | -89% | 21.3 ± 17.9 µM |  | 11.2 µM | 28.9 ± 16.7 µM |  |  |  |  |  |
| Bis(tributyltin)oxide |  |  |  | -112±4% |  |  |  | 0.09 ± 0.02 µM |  |  |  |  | -98% | inactive | 0.31 µM |
